Measured values taken from US8846327B2, “Method of quantifying autoinducer-2” (priority 2007, dated 2014).

Columns and labels:
AI-2 = details: Niu C. et al., Lett. Appl. Microbiol. 2006; cited from earlier work
[1] = tested on: Vibrio harveyi BB170 strain; assay: AI-2 reporter bioassay: photogenesis intensity of Vibrio harveyi BB170 reporter bacterium; format: cell-based
Description: An HMF authentic preparation (SIGMA) and a DPD authentic preparation (examination of synthesis was requested to OMM Scientific, and a product synthesized by the company was purchased) were added at a final concentration of 0.001 to 1000 μM to a Vibrio harveyi BB170 strain (purchased from ATCC, cultured under aerobic conditions at 30° C. in a marine medium (manufactured by Difco)) used as an autoinducer-2 (AI-2) reporter bacterium. The photogenesis intensity as the index of the AI-2 activity was measured in the same way as in Keersmaecker S. C. J. et al., J. Biol. Chem., 280(20), pp. 19563-19568, 2005. Namely, the Vibrio harveyi BB170 strain was diluted to 5000-fold as a final concentration with an AB medium (for example, see Bassler et al., Mol. Microbiol., 9, pp. 773-786, 1993), and the reporter bacterium liquid and the authentic preparations were mixed at a volume ratio of 9:1, followed by culturing with aerobic shaking at 30° C. Four hours later, the photogenesis intensity was measured using a chemiluminescence analyzer (Berthold, Mitharas LB940 (product name), detecting chemiluminescence). FIG. 1 illustrates a correlation between the concentrations of the HMF authentic preparation and DPD authentic preparation, and the photogenesis intensity. The HMF authentic preparation and DPD authentic preparation were prepared in glass containers. […]

[2] = tested on: Vibrio harveyi BB170 strain; details: Keersmaecker et al.; reporter strain of Vibrio harveyi; activity detected at considerably higher concentration than DPD; cited from earlier work

| Compound | AI-2-inhibiting activity (AI-2) | HMF concentration detectable in the bioassay ([1]; calibration curve prepared using glass containers) | HMF-induced photogenesis intensity of the reporter bacterium compared with autoinducer-2 ([1]; reporter bacterium light emission) | autoinducer-2 activity [2] |
| --- | --- | --- | --- | --- |
| O=CC=Cc1ccccc1 [Cinnamaldehyde, 3-phenyl-2-propenal] | having an AI-2-inhibiting activity |  |  |  |
| CC1=C(O)C(=O)CO1 [HMF, 4-hydroxy-5-methyl-3(2H)-furanone] |  | ≤ 0.1 µM | lower than the photogenesis intensity induced by autoinducer-2 | has an autoinducer-2 activity |
